US20240216335A1, “COMPOSITION FOR INCREASING LEUKOCYTES AND/OR BASOPHILS” (SUNTORY HOLDINGS LIMITED, priority 2021, published 2024)

Experiments:
[1] = system: blood leukocytes and basophils; assay: Study on evaluation of blood leukocyte count and basophil count in humans (placebo-controlled, randomized, double-blind, parallel-group); format: in vivo; details: one capsule with 20 mg L-ergothioneine per day orally for four weeks, week 4 vs pre-testing, compared with control food group
Procedure: In order to evaluate the influence of supplements containing ergothioneine on blood leukocyte count and basophil count in humans, a placebo-controlled, randomized, double-blind, parallel-group study was conducted on subjects including male and female adults (46 subjects in a test food group; 46 subjects in a control food group; 92 subjects in total). In this study, one capsule containing 20 mg ergothioneine (test food) or one capsule not containing ergothioneine (control food) was fed per day for four weeks. The blood leukocyte count and basophil count in each subject were measured for pre-testing before starting the study (before starting ingestion of the test food or control food). After ingestion of the test food or control food for four weeks, the blood leukocyte count and basophil count in each subject were measured again (testing on week 4). […] Specifically, the amount of change in the test food group at the time of testing on week 4 was determined for the test food group by subtracting the blood leukocyte count (average) at the time of pre-testing from the blood leukocyte count (average) at the time of testing on week 4. Similarly, the amount of change at the time of testing on week 4 was determined for the control food group by subtracting the blood leukocyte count (average) at the time of pre-testing from the blood leukocyte count (average) at the time of testing on week 4. […]

[2] = target: T1, recombinant human epidermal growth factor receptor (EGFR) tyrosine kinase (Homo sapiens, UniProt P00533); assay: Evaluation of activity to inhibit substrate binding of EGFR tyrosine kinase ([32P]Poly(Glu:Tyr) formation, Eurofins Panlabs); format: biochemical; details: 100 or 1000 μM L-ergothioneine, HEPES buffer pH 7.4, 37° C., 10 μM ATP, 0.2 mg/mL Poly(Glu:Tyr)
T1 construct: host or cells: insect cells
T1 sequence (P00533 25-1210): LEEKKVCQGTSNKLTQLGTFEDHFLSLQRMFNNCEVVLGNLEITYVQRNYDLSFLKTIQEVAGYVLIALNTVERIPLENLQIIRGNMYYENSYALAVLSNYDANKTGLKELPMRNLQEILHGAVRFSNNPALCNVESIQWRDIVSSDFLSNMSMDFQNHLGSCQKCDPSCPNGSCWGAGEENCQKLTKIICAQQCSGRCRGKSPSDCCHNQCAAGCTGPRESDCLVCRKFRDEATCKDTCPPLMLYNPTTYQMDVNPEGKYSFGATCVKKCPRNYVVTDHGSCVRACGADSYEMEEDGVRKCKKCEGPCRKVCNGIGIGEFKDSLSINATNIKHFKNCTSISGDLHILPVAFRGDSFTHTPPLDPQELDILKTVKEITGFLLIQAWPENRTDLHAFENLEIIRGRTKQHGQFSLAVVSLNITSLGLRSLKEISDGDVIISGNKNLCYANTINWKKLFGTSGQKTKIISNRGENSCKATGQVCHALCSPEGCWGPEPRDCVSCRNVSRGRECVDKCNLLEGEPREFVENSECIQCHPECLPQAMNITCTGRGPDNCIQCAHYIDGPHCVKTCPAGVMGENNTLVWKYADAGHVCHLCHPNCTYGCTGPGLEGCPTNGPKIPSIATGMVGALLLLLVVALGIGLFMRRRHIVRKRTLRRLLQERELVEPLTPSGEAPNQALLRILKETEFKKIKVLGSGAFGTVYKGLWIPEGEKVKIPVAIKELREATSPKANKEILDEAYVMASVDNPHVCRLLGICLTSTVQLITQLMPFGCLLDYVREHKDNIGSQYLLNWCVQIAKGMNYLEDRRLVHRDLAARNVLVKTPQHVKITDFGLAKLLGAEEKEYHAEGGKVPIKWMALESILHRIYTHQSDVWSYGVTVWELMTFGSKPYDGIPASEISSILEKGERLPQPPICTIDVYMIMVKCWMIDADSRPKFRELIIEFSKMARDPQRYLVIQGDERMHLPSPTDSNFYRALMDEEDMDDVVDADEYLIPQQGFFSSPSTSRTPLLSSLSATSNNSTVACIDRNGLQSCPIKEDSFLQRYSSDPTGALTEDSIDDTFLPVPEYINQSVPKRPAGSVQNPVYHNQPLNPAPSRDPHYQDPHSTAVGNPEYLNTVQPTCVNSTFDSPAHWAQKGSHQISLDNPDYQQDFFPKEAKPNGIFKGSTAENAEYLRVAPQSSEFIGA
Procedure: The study was commissioned to Eurofins Panlabs. The study was performed using recombinant human epidermal growth factor receptor (EGFR) tyrosine kinase expressed in insect cells. First, epidermal growth factor receptor (EGFR) tyrosine kinase (0.134 μg/mL) was incubated in HEPES buffer (pH 7.4) with 100 or 1000 μM L-ergothioneine at 37° C. for 15 minutes. Then, 0.2 mg/mL Poly(Glu:Tyr), 10 μM ATP, and 0.25 μCi [γ^32P] ATP were added. Thereby, an enzymatic reaction was initiated. After incubating at 37° ° C. for 30 minutes, 3% H3PO4 was added to terminate the reaction. Lastly, the activity of ergothioneine to inhibit substrate binding was evaluated using the amount of [^32P]Poly(Glu:Tyr) formed in the reaction as an index.

[3] = mice orally administered with ergothioneine vs mice not administered; cited from earlier work
[4] = system: IL-6, IL-12p40, IL-1β, and IL-10; details: absence of the TLR ligand, ergothioneine concentration 0 or 10 mM; cited from earlier work

Question: What does the source list for `C[N+](C)(C)[C@@H](Cc1c[nH]c(=S)[nH]1)C(=O)[O-]` [L-ergothioneine]?
Answer: amount of change in blood basophil count (Δ in basophils (%)) [1]: significantly increased; amount of change in blood leukocyte count (Δ in leukocytes (cells/μL)) [1]: significantly increased; activity to inhibit substrate binding of epidermal growth factor receptor (EGFR) tyrosine kinase [2]: showed an activity to inhibit substrate binding; peritesticular fat weight [3]: lower; triglyceride (neutral fat) level in plasma [3]: lower; detection of IL-6, IL-12p40, IL-1β, and IL-10 [4]: none of IL-6, IL-12p40, IL-1β, and IL-10 was detected
